This is an account of results in patent US20110287953A1, “METHOD FOR DISCOVERING POTENTIAL DRUGS” (priority 2010, published 2011).

Series [1] has as its system hepatocellular carcinoma or HCC. As to conditions: Table 2-3; labels (2) and (3), PubMed references; cited from earlier work.
In a further series the test system is HCC cell lines. Briefly: Drug efficacy label of top 10 CMap drugs (MTT or clonogenic).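 Further: label 1 means effective by MTT or clonogenic assay and 4 means ineffective.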 It is filed as cell-based. As to conditions: Table 2-3; labels (1) and (4); gene set in which the drug ranked top 10. The procedure:
(§1) The HCC cell lines, Mahlavu, PLC5, HepG2, and Huh7, were cultured in Dulbecco's Modified Eagle Medium (DMEM; Seromed, Berlin, Germany) supplemented with 10% heat-inactivated fetal bovine serum, 100 μg/ml streptomycin, 100 μg/ml penicillin, and 2 mM L-glutamine in a humidified atmosphere containing 5% CO2 at 37° C. […] The cells were exposed to different concentrations of the small molecules for 72 hours. Control cells were incubated in the absence of small molecules. Afterwards, the cells were incubated with medium containing MTT for 2 hours. […] For the clonogenic assay, Huh7 cells were seeded out in appropriate dilutions in a 6-well plate and treated with selected small molecules at various concentrations for 15 days. Colonies were fixed with glutaraldehyde (6.0% v/v), stained with crystal violet (0.5% w/v), and counted.

Series [2] deals with HCC cell lines, Mahlavu, PLC5, HepG2, and Huh7. Briefly: MTT cell viability test in HCC cell lines. The procedure:
as §1

The test system of another series is Huh7 cells. Kind of series: Clonogenic assay. It is filed as cell-based. The following applies: for inhibition at 10 µM: Homo sapiens, Huh-7, 360 h; for inhibition at 10 µM / Clonogenic assay: colony number at 10 μM.
In the next series the test system is Huh-7 cells. The following applies: proliferation of Huh-7 cells, other reports; cited from earlier work.
Series [3] concerns NPC cell lines, TW01, TW03, TW04, BM1.
Description: NPC cell lines, TW01, TW03, and TW04 provided by Dr. C T Lin (National Taiwan University, Taiwan), were derived from primary nasopharyngeal tumors of Chinese patients with de novo NPC and had been tested and authenticated (27). NPC cell line BM1, provided by Dr. S K Liao (Chang Gung University, Taiwan), was derived from bone metastatic lesions of an NPC patient (28). NPC cell lines were maintained in DMEM with 10% FBS containing penicillin (100 U/mL) and streptomycin (100 μg/mL) in 5% CO2 at 37° C. Cell viability was determined using the XTT cell viability assay kit (Sigma-Aldrich, St. Louis, USA), according to the manufacturer's instructions. […] Cells were exposed with or without small molecules for 72 hours at different concentrations. Then, the cells were incubated with medium containing XTT in an amount equal to 20% of the culture medium volume for 2 hours. Optical density was measured using a microplate reader (Spectral Max250) at 450 nm.
In another series the test system is B16 melanoma cells. As to conditions: cited from earlier work.
The next series has as its system leukemic cells. The following applies: cited from earlier work.
[4] abbreviates: 72 h, Table 2-2, HCC cell lines, MTT.
Setting [5] is: 72 h, Table 3-1, HCC cell lines, MTT.
[6] abbreviates: Table 3-1, HCC cell lines, 72 hours, MTT.

Description for Huh7 cells: The HCC cell lines, Mahlavu, PLC5, HepG2, and Huh7, were cultured in Dulbecco's Modified Eagle Medium (DMEM; Seromed, Berlin, Germany) supplemented with 10% heat-inactivated fetal bovine serum, 100 μg/ml streptomycin, 100 μg/ml penicillin, and 2 mM L-glutamine in a humidified atmosphere containing 5% CO2 at 37° C. The viability of the exposed cells was determined using the MTT cell viability assay kit (Sigma-Aldrich, St. Louis, USA), according to the manufacturer's instructions. […] The cells were exposed to different concentrations of the small molecules for 72 hours. Control cells were incubated in the absence of small molecules. Afterwards, the cells were incubated with medium containing MTT for 2 hours. The optical density at 450 nm was measured using a microplate reader (Spectral Max250). For the clonogenic assay, Huh7 cells were seeded out in appropriate dilutions in a 6-well plate and treated with selected small molecules at various concentrations for 15 days. Colonies were fixed with glutaraldehyde (6.0% v/v), stained with crystal violet (0.5% w/v), and counted.

For `Nc1ccccc1NC(=O)c1ccc(CNC(=O)OCc2cccnc2)cc1` [MS-275], the drug efficacy label entry in series [1] is on record as “MS-275 (2)”.
Broadly, the IC50 is the point on the concentration scale where inhibition reaches its midpoint. As a reminder, the inhibition is the drop in the measured response relative to a control, in per cent. Higher therefore signals strong suppression. On to `O=c1cc(-c2ccc(O)cc2)oc2cc(O)cc(O)c12` [apigenin], for which the drug efficacy label result in the series with HCC cell lines is given as “apigenin (1)”. Further, the IC50 in series [2] (setting [4]) and in series [2] (setting [5]) was over 10 µM throughout. Further, the “growth / survival of Huh7 cells” value in the series on Huh7 cells is recorded as “inhibited the growth of Huh7 cells”. In the series with Huh7 cells (Table 3-1, 15 days), this molecule had an inhibition at 10 µM of over 50%. Besides, the “Clonogenic assay” value in the series with Huh7 cells (Table 2-2, 15 days) is recorded as “Effective (Effectiveness in clonogenic assay is defined as reducing more than 50% colony number at 10 μM)”.
As for `CN(C)CCCN1c2ccccc2Sc2ccc(Cl)cc21` [chlorpromazine], the drug efficacy label result in the series with HCC cell lines is “chlorpromazine (1)”. In addition, the IC50 in series [2] (setting [4]) is over 10 µM; in series [2] (setting [5]) it was 5 to 10 µM. Also, the inhibition at 10 µM in the series with Huh7 cells (Table 3-1, 15 days) was over 50%. In addition, in the series with Huh7 cells (Table 2-2, 15 days), the “Clonogenic assay” value is on record as “Effective (Effectiveness in clonogenic assay is defined as reducing more than 50% colony number at 10 μM)”.
Turning to `Clc1ccc(C(OCCN2CCCCC2)c2ccccc2)cc1` (centres unmarked) [cloperastine], in the series with HCC cell lines, the drug efficacy label entry is recorded as “cloperastine (4)”. This molecule gave an IC50 in series [2] (setting [5]) of over 10 µM. The molecule also gave an inhibition at 10 µM in the series with Huh7 cells (Table 3-1, 15 days) of over 50%.
As to `CC[C@H](c1ccc(O)cc1)[C@@H](CC)c1ccc(O)cc1` [hexestrol], in the series with HCC cell lines, the drug efficacy label entry is “hexestrol (4)”. Besides, the half-inhibitory concentration (IC50) in series [2] (setting [5]) is over 10 µM. The Clonogenic assay result with Huh7 cells (Table 3-1, 15 days) is given as “Ineffective”.
Consider `CC(C(O)c1ccc(O)cc1)N1CCC(Cc2ccccc2)CC1` (centres unmarked) [ifenprodil], for which the drug efficacy label entry in series [1] is “ifenprodil (3)”. This molecule showed an IC50 in series [2] (setting [5]) of over 10 µM.
On to `O=c1cc(-c2ccc(O)c(O)c2)oc2cc(O)cc(O)c12` [luteolin], for which, in the series on HCC cell lines, the drug efficacy label result is “luteolin (4)”. The results for the IC50 (in the series with Huh-7 cells; in series [2] (setting [4]); in series [2] (setting [5])) were about 50 µM, over 10 µM and over 10 µM, respectively. Also, in the series on Huh7 cells (Table 3-1, 15 days), the inhibition at 10 µM is over 50%. For the same molecule, the “Clonogenic assay” value in the series with Huh7 cells (Table 2-2, 15 days) is listed as “Ineffective”.
As for `CC[C@@H](CO)NC(=O)[C@@H]1C=C2c3cccc4[nH]cc(c34)C[C@H]2N(C)C1` [methylergometrine], the drug efficacy label result with HCC cell lines was “methylergometrine (4)”. In addition, the IC50 in series [2] (72 h) was over 10 µM. For the same molecule, in the series on Huh7 cells (Table 3-1, 15 days), the Clonogenic assay entry was “Ineffective”.
As for `CC(COc1ccccc1)N(CCCl)Cc1ccccc1` (centres unmarked) [phenoxybenzamine], in the series on HCC cell lines, the drug efficacy label entry is “(1) and phenoxybenzamine (1)”. Further, the IC50 in series [2] (72 h) and in series [2] (setting [6]) was over 10 µM in each case. In the series on Huh7 cells, the “growth / survival of Huh7 cells” value is listed as “could inhibit the survival of Huh7 cells”. For the same molecule, the inhibition at 10 µM with Huh7 cells (Table 3-1, 15 days) was over 50%. Further, in the series on Huh7 cells (Table 2-2, 15 days), the “Clonogenic assay” value was “Effective (Effectiveness in clonogenic assay is defined as reducing more than 50% colony number at 10 μM)”.
For the molecule `Cc1cc(/C=C/c2ccc3cc(N(C)C)ccc3[n+]2C)c(C)n1-c1ccccc1` [pyrvinium], the drug efficacy label result in series [1] is given as “pyrvinium (3)”. In series [2] (setting [5]), this molecule gave an IC50 of 0.1 to 1 µM.
As for `CC(/C=C/C(=O)NO)=C\[C@@H](C)C(=O)c1ccc(N(C)C)cc1` [trichostatin A], the drug efficacy label result in the series on HCC cell lines was “trichostatin A (1)”. Further, the “cytotoxicity in NPC cell lines” value in series [3] is given as “Dose-dependent cytotoxicity”. The IC50 in series [2] (Table 2-2, HCC cell lines, 72 hours, MTT) is 0.1 to 1 µM; in series [2] (setting [6]), 0.1 to 1 µM.
As to `CN1CCN(CCCN2c3ccccc3Sc3ccc(C(F)(F)F)cc32)CC1` [trifluoperazine], the drug efficacy label result with HCC cell lines is recorded as “trifluoperazine (1)”. The “cytotoxicity in NPC cell lines” value in series [3] is “Dose-dependent cytotoxicity”. The IC50 in series [2] (setting [4]) and in series [2] (setting [5]) was over 10 µM in each case. In addition, the inhibition at 10 µM in the series with Huh7 cells (Table 3-1, 15 days) was over 50%. For the same molecule, in the series on Huh7 cells (Table 2-2, 15 days), the “Clonogenic assay” value is reported as “Effective (Effectiveness in clonogenic assay is defined as reducing more than 50% colony number at 10 μM)”. The “apoptosis” value in the series with B16 melanoma cells and with leukemic cells was “can induce apoptosis” in each case.
Regarding `O=C(CCCCCCC(=O)Nc1ccccc1)NO` [vorinostat], in series [1], the drug efficacy label result is on record as “vorinostat (2)”.
